≈ marks a conversion by molar mass, not a printed value.
What was measured:
[1] = Experimental saturated solubility of ENO in excipients; format: physicochemical; conditions: thermodynamic from solid
[2] = cited from earlier work
[3] = cited from earlier work; remark: listed apart in the source
[4] = Hansen solubility parameters estimated with HSPiP program; conditions: HSP parameters of ENE5 based on composition

Question: For CCn1cc(C(=O)O)c(=O)c2cc(F)c(N3CCNCC3)nc21 [ENO, Enoxacin], which solubility at 72 h ([1]; C90, 40 °C) is on record?
Answer: 2800 µg/mL (≈ 8.74 mM)

Question: What about the solubility at 72 h ([1]; Miglyol 812N, 40 °C, oil or lipid) of the same compound?
Answer: 5400 µg/mL (≈ 16.9 mM)

Question: And the solubility at 72 h ([1]; NMP (N-methyl-2-pyrrolidone), 40 °C)?
Answer: 6700 µg/mL (≈ 20.9 mM)

Question: What about the solubility at 72 h ([1]; Tween 80, 40 °C) of the same compound?
Answer: 1500 µg/mL (≈ 4.68 mM)

Question: What about the aqueous solubility ([2]; an experimental value) of the same compound?
Answer: 290 µg/mL (≈ 0.905 mM)

Question: What about the pKa [2] of the same compound?
Answer: 5.5

Question: With CCOCCOCCO [Transcutol-HP] as the compound, how does the HLB [3] read?
Answer: 14.5

Question: Which “δd, share of the component in ENE5 based on composition” value [4] does the source give for CCCCCCCC/C=C\CCCCCCCC(=O)OCCOCC(OCCO)C1OCC(OCCO)C1OCCO (stereo not shown) [Tween 80] here?
Answer: 2.52

Question: And the “δh, share of the component in ENE5 based on composition” value [4]?
Answer: 1.425

Question: What about the “δp, share of the component in ENE5 based on composition” value [4] of the same compound?
Answer: 0.975

Question: Which results are given for CN1CCCC1=O [NMP, N-methyl-2-pyrrolidone]?
Answer: δd, share of the component in ENE5 based on composition [4]: 8.1; δh, share of the component in ENE5 based on composition [4]: 3.33; δp, share of the component in ENE5 based on composition [4]: 4.46

— article PMC10061639 (ACS Omega, 2023)
